Experimental data: US9610285B2, “Compositions for controlling food intake and uses therefor” (UNIVERSITY OF FLORIDA RESEARCH FOUNDATION, INCORPORATED, priority 2011, dated 2017)
Marks after values point to notes of the source that are not given here.

Key:
Assay type in all cases: in vivo, rat
Male Sprague-Dawley rats [1] = assay: Palatable food intake following drug injections in binge-eating rats (Example 2); conditions: for Effect on palatable food (fat) intake, in words / Effect on palatable food (sugar) intake, in words / Effect on palatable food (sugar-fat) intake, in words: one-way ANOVA over saline, low and high dose
Excerpt: (§1) Male Sprague-Dawley rats, 250-300 g at the onset of the experiment, were obtained from Taconic Farms (Germantown, N.Y., USA). Rats were housed individually on a 12-h reversed light/dark cycle and given 1 wk to acclimate before diet training began.
(§2) The rats were divided into groups (n=10/group) matched for body weight and assigned to one of the following dietary conditions: (1) Binge Sugar, (2) Binge Fat or (3) Binge Sugar-Fat. All rats received palatable diets and standard rodent chow (LabDiet #5001, PMI Nutrition International, Richmond, Ind., USA; 10% fat, 20% protein, 70% carbohydrate, 3.02 kcal/g) for 12 h/day, starting 4 h after the onset of the dark cycle. Water was available ad libitum.
(§3) All palatable foods were mixed in the laboratory. The Binge Sugar group had access to a 10% (w/v) sucrose solution (Domino® Granulated Pure Cane Sugar, dissolved in tap water, 0.4 kcal/mL), the Binge Fat group had access to a 35% (w/v) fat emulsion (3.1 kcal/mL) and the Binge Sugar-Fat group had access to a 10% (w/v) sugar solution and 35% (w/v) fat emulsion (3.5 kcal/mL). Both emulsions were made with Wesson® Pure Vegetable Oil in tap water and 0.6% (w/v) Emplex, a commercially available emulsifier (American Ingredients Company, Kansas City, Mo., USA). Palatable food intakes were recorded daily. Chow intake was recorded weekly. Body weights were taken at the beginning and end of the 21-day diet period.
(§4) After 21 days on these diets, drug testing began. During testing, diet regimens were maintained. Approximately 3.5 h into the dark cycle, animals were weighed and intraperitoneal (i.p.) injections of drug were given (according to the schedule below). 30 min later (4 h into the dark cycle) palatable food and chow were made available to the rats. For the first 3 days, rats were acclimated to handling and daily vehicle injections (0.9% saline, Hospira, Lake Forest, Ill., USA, i.p. 1 mL/kg). For days 4-16 of drug testing, either vehicle or drug was alternatively administered, starting with drug on day 4. […] Intake of palatable food and chow was measured hourly after injection for 4 h and again at the end of the 12-h access period.
(§5) Palatable food and standard chow intakes following saline injections between days 4-16 were averaged. All data were analyzed using one-way ANOVAs with post hoc Multiple Comparisons, when appropriate. In Tables 4-7, values having the same letter superscript are statistically different from one another.

Male Sprague-Dawley rats [2] = assay: Total caloric intake following drug injections in binge-eating rats (Example 2); conditions: for Effect on total caloric intake, in words: one-way ANOVA over saline, low and high dose
Excerpt: as §1, §2, §3, §4, §5

rats = assay: Binge eating rats, palatable food and chow intake (Example 1, FIGS. 1-5); conditions: drug alone, i.p., figure legends
Protocol: Baclofen (at 1.0 and 1.8 mg/kg, administered i.p.)
Baclofen+naltrexone (mixed low and mixed high)
1. Binge Sugar (10% sucrose solution, w/v)
2. Binge Fat (35% oil emulsion, w/v)
3. Binge Sugar/Fat (10% sucrose, 35% oil emulsion, w/v)
Groups of animals (rats) were maintained on their diets for 3 weeks to establish stable binge eating behavior. After this period of time, the rats were administered three days of daily i.p. injections of saline (to acclimate to the injection procedure), and sugar/chow intake was measured after the first hour of access and then hourly for the next 3 hours, as well as at the end of the 12-h access period. After this three-day period, rats were given baclofen+naloxone, and measurements taken as described above. Other dosage amounts of baclofen and naloxone were tested, as were the effects of these compounds alone (with measurements being performed as described above). Vehicle injections were performed between the various tests in order to allow for suitable clearance of compounds from the animals. […] Thus, the treatment appears ideally suited for food addicts, hedonic overeaters and changes food choice but not appetite.

Male Sprague-Dawley rats [3] = assay: Standard chow intake following drug injections in binge-eating rats (Example 2); conditions: for Effect on standard chow intake, in words: one-way ANOVA over saline, low and high dose
Excerpt: as §1, §2, §3, §4, §5

[4] = Binge Fat group, 1 h, high dose (naltrexone 1.0 mg/kg, baclofen 1.8 mg/kg, or both, i.p.)
[5] = Binge Fat group, 1 h, low dose (naltrexone 0.1 mg/kg, baclofen 1.0 mg/kg, or both, i.p.)
[6] = Binge Fat group, 12 h, high dose (naltrexone 1.0 mg/kg, baclofen 1.8 mg/kg, or both, i.p.)
[7] = Binge Fat group, 12 h, low dose (naltrexone 0.1 mg/kg, baclofen 1.0 mg/kg, or both, i.p.)
[8] = Binge Sugar group, 1 h, high dose (naltrexone 1.0 mg/kg, baclofen 1.8 mg/kg, or both, i.p.)
[9] = Binge Sugar group, 1 h, low dose (naltrexone 0.1 mg/kg, baclofen 1.0 mg/kg, or both, i.p.)
[10] = Binge Sugar group, 12 h, high dose (naltrexone 1.0 mg/kg, baclofen 1.8 mg/kg, or both, i.p.)
[11] = Binge Sugar group, 12 h, low dose (naltrexone 0.1 mg/kg, baclofen 1.0 mg/kg, or both, i.p.)
[12] = Binge Sugar-Fat group, 1 h, high dose (naltrexone 1.0 mg/kg, baclofen 1.8 mg/kg, or both, i.p.)
[13] = Binge Sugar-Fat group, 1 h, low dose (naltrexone 0.1 mg/kg, baclofen 1.0 mg/kg, or both, i.p.)
[14] = Binge Sugar-Fat group, 12 h, high dose (naltrexone 1.0 mg/kg, baclofen 1.8 mg/kg, or both, i.p.)
[15] = Binge Sugar-Fat group, 12 h, low dose (naltrexone 0.1 mg/kg, baclofen 1.0 mg/kg, or both, i.p.)

What does the source list for `NC[C@H](CC(=O)O)c1ccc(Cl)cc1` [Baclofen, R-baclofen]?
1-H Palatable Food Intake (Kcal) (Male Sprague-Dawley rats [1]; [4]): 6.5 ± 2.0^c,d Kcal; Palatable food intake as a percent of intake after saline injections, 1-H Intake (%) (Male Sprague-Dawley rats [1]; [4]): 38%; 1-H Palatable Food Intake (Kcal) (Male Sprague-Dawley rats [1]; [5]): 17.9 ± 2.4^d Kcal; Palatable food intake as a percent of intake after saline injections, 1-H Intake (%) (Male Sprague-Dawley rats [1]; [5]): 106%; Effect on palatable food (fat) intake, in words (Male Sprague-Dawley rats [1]; Binge Fat group, 1 h): decreased; 12-H Palatable Food Intake (Kcal) (Male Sprague-Dawley rats [1]; [6]): 32.6 ± 4.9^e,f Kcal; Palatable food intake as a percent of intake after saline injections, 12-H Intake (%) (Male Sprague-Dawley rats [1]; [6]): 56%; 12-H Palatable Food Intake (Kcal) (Male Sprague-Dawley rats [1]; [7]): 54.5 ± 4.5^f Kcal; Palatable food intake as a percent of intake after saline injections, 12-H Intake (%) (Male Sprague-Dawley rats [1]; [7]): 93%; Effect on palatable food (fat) intake, in words (Male Sprague-Dawley rats [1]; Binge Fat group, 12 h): decreased; 1-H Palatable Food Intake (Male Sprague-Dawley rats [1]; [8]): 2.7 ± 0.5 kcal; Palatable food intake as a percent of intake after saline injections, 1-H Intake (%) (Male Sprague-Dawley rats [1]; [8]): 96%; 1-H Palatable Food Intake (Male Sprague-Dawley rats [1]; [9]): 3.6 ± 0.8 kcal; Palatable food intake as a percent of intake after saline injections, 1-H Intake (%) (Male Sprague-Dawley rats [1]; [9]): 131%; Effect on palatable food (sugar) intake, in words (Male Sprague-Dawley rats [1]; Binge Sugar group, 1 h): no effect; 12-H Palatable Food Intake (Kcal) (Male Sprague-Dawley rats [1]; [10]): 11.4 ± 2.4^ Kcal; Palatable food intake as a percent of intake after saline injections, 12-H Intake (%) (Male Sprague-Dawley rats [1]; [10]): 90%; 12-H Palatable Food Intake (Male Sprague-Dawley rats [1]; [11]): 11.3 ± 2.5 kcal; Palatable food intake as a percent of intake after saline injections, 12-H Intake (%) (Male Sprague-Dawley rats [1]; [11]): 88%; Effect on palatable food (sugar) intake, in words (Male Sprague-Dawley rats [1]; Binge Sugar group, 12 h): no effect; 1-H Palatable Food Intake (Kcal) (Male Sprague-Dawley rats [1]; [12]): 8.6 ± 1.6^j,k Kcal; Palatable food intake as a percent of intake after saline injections, 1-H Intake (%) (Male Sprague-Dawley rats [1]; [12]): 37%; 1-H Palatable Food Intake (Kcal) (Male Sprague-Dawley rats [1]; [13]): 23.5 ± 3.9^j Kcal; Palatable food intake as a percent of intake after saline injections, 1-H Intake (%) (Male Sprague-Dawley rats [1]; [13]): 100%; Effect on palatable food (sugar-fat) intake, in words (Male Sprague-Dawley rats [1]; Binge Sugar-Fat group, 1 h): significantly decreased; 12-H Palatable Food Intake (Kcal) (Male Sprague-Dawley rats [1]; [14]): 57.4 ± 4.1^p Kcal; Palatable food intake as a percent of intake after saline injections, 12-H Intake (%) (Male Sprague-Dawley rats [1]; [14]): 75%; 12-H Palatable Food Intake (Male Sprague-Dawley rats [1]; [15]): 64.9 ± 6.6 kcal; Palatable food intake as a percent of intake after saline injections, 12-H Intake (%) (Male Sprague-Dawley rats [1]; [15]): 85%; Effect on palatable food (sugar-fat) intake, in words (Male Sprague-Dawley rats [1]; Binge Sugar-Fat group, 12 h): suppressed intake; 1-H Total Caloric Intake (Kcal) (Male Sprague-Dawley rats [2]; [4]): 17.0 ± 3.0^e,f Kcal; 1-H Total Caloric Intake (Kcal) (Male Sprague-Dawley rats [2]; [5]): 30.1 ± 4.1^f Kcal; 12-H Total Caloric Intake (Kcal) (Male Sprague-Dawley rats [2]; [6]): 67.7 ± 9.9^g Kcal; 12-H Total Caloric Intake (Male Sprague-Dawley rats [2]; [7]): 88.6 ± 7.8 kcal; 1-H Total Caloric Intake (Male Sprague-Dawley rats [2]; [8]): 21.9 ± 4.4 kcal; 1-H Total Caloric Intake (Male Sprague-Dawley rats [2]; [9]): 26.7 ± 2.3 kcal; 12-H Total Caloric Intake (Male Sprague-Dawley rats [2]; [10]): 74.0 ± 6.3 kcal; 12-H Total Caloric Intake (Male Sprague-Dawley rats [2]; [11]): 84.8 ± 7.0 kcal; 1-H Total Caloric Intake (Kcal) (Male Sprague-Dawley rats [2]; [12]): 15.0 ± 2.6^k,m Kcal; 1-H Total Caloric Intake (Kcal) (Male Sprague-Dawley rats [2]; [13]): 34.8 ± 5.6^m Kcal; 12-H Total Caloric Intake (Male Sprague-Dawley rats [2]; [14]): 81.4 ± 7.3 kcal; 12-H Total Caloric Intake (Male Sprague-Dawley rats [2]; [15]): 89.5 ± 8.8 kcal; Effect on total caloric intake, in words (Male Sprague-Dawley rats [2]; Fat group, 1 h): significantly reduced; Effect on total caloric intake, in words (Male Sprague-Dawley rats [2]; Fat group, 12 h): significantly reduced; Effect on total caloric intake, in words (Male Sprague-Dawley rats [2]; Sugar group, 1 h): no effect; Effect on total caloric intake, in words (Male Sprague-Dawley rats [2]; Sugar group, 12 h): no effect; Effect on total caloric intake, in words (Male Sprague-Dawley rats [2]; Sugar-Fat group, 1 h): reduced; Effect on total caloric intake, in words (Male Sprague-Dawley rats [2]; Sugar-Fat group, 12 h): not apparent; Effect on intake of oil-containing palatable foods (rats; oil containing groups (Binge Fat, Binge Sugar/Fat)): reduces intake; Effect on binge eating of sugar (rats; sugar-binging rats): no effect; 1-H Chow Intake (Male Sprague-Dawley rats [3]; [4]): 10.6 ± 1.0 kcal; 1-H Chow Intake (Male Sprague-Dawley rats [3]; [5]): 12.2 ± 1.7 kcal; 12-H Chow Intake (Male Sprague-Dawley rats [3]; [6]): 35.0 ± 5.0 kcal; 12-H Chow Intake (Male Sprague-Dawley rats [3]; [7]): 34.1 ± 3.3 kcal; 1-H Chow Intake (Male Sprague-Dawley rats [3]; [8]): 19.3 ± 3.4 kcal; 1-H Chow Intake (Male Sprague-Dawley rats [3]; [9]): 23.0 ± 1.5 kcal; 12-H Chow Intake (Male Sprague-Dawley rats [3]; [10]): 62.5 ± 3.8 kcal; 12-H Chow Intake (Kcal) (Male Sprague-Dawley rats [3]; [11]): 73.5 ± 4.5^c Kcal; 1-H Chow Intake (Kcal) (Male Sprague-Dawley rats [3]; [12]): 6.3 ± 1.0^i Kcal; 1-H Chow Intake (Kcal) (Male Sprague-Dawley rats [3]; [13]): 11.3 ± 1.7^i Kcal; Effect on standard chow intake, in words (Male Sprague-Dawley rats [3]; Binge Sugar-Fat group, 1 h): less chow intake at the high dose compared to the low dose; 12-H Chow Intake (Male Sprague-Dawley rats [3]; [14]): 24.1 ± 3.1 kcal; 12-H Chow Intake (Male Sprague-Dawley rats [3]; [15]): 24.6 ± 2.2 kcal; Effect on standard chow intake, in words (Male Sprague-Dawley rats [3]; Fat group, 1 h): no effect; Effect on standard chow intake, in words (Male Sprague-Dawley rats [3]; Fat group, 12 h): no effect; Effect on standard chow intake, in words (Male Sprague-Dawley rats [3]; Sugar group, 1 h): no effect; Effect on standard chow intake, in words (Male Sprague-Dawley rats [3]; Sugar group, 12 h): stimulated chow intake
